Laboratory results taken from patent US20070112175A1, “Determining drug resistance” (Children's Cancer Institute Australia for Medical Research, priority 2003, published 2007).

Tests used:
[1] = test system: NIH3T3 mutant γ-actin transfectant cells; test: Drug treatment and α-tubulin immunofluorescence of microtubules; format: cell-based, mouse; conditions: 10 μM, 30 min
Description: NIH3T3 mutant γ-actin transfectant cells were grown to ˜80% confluency in 4-well chamber slides (Nalge Nunc International, Naperville, Ill.) and treated with either 0.5% DMSO (vehicle control), 10 μM VLB, or 10 μM dEpoB, for 30 min, prior to immunostaining for total α-tubulin using standard methods. Epifluorescence imaging was performed using a Zeiss Axioscope 100 linked to a cooled CCD camera.

[2] = test system: NIH3T3 mutant γ-actin transfectant cells; test: Drug resistance clonogenic assay; format: cell-based, mouse; conditions: P<0.05
Description: DNA (1 μg) was transfected into subconfluent NIH3T3 mouse fibroblast cells using the Fugene (Roche) transfection reagent according to the manufacturer's instructions. Stable transfectants were selected in 1 mgm1^−1 G418 for 16 days. Levels of γ-actin expression were determined by immunoblotting as described above.
The ability of mutant γ-actin to confer resistance to antimicrotubule agents was determined using clonogenic assays with slight modifications. NIH3T3 mutant γ-actin transfectant cells were seeded at 100 cells/well in replicate wells of a 24-well dish containing increasing concentrations of VLB. The media was replaced after 3 days with drug-free DME/10%FCS. After a further 4 days the media was removed and colonies stained with 0.1% crystal violet. The densitometric volume of each well was determined using the Quantity One software package (Biorad) and expressed relative to the respective drug-free control cells. The concentration that kills 50% of cells (ID50) and statistical analyses were then performed. The relative resistance was determined by dividing the ID50 of each γ-actin transfectant cell line with the ID50 of the empty vector cells.

CEM/VLB100 cells = test: Resistance of vinblastine-selected subline CEM/VLB100; format: cell-based, Human; conditions: CEM/VLB100 subline of CCRF-CEM
From the text: (§1) Human T-cell acute lymphoblastic leukaemia cells, CCRF-CEM, and drug resistant sublines, CEM/VCR R (vincristine-selected) and CEM/VLB100 (vinblastine-selected), and CEM/dEpoB 1×, CEM/dEpoB 2×, CEM/dEpoB 4×, CEM/dEpoB 10×(desoxyepothilone B-selected), were maintained in RPMI 1640 containing 10% FCS as suspension cultures. The CEM/VCRR are 22,600-fold and CEM/VLB100 are 6,667-fold resistant to vincristine and vinblastine respectively. Cells were harvested for protein analysis by centrifugation at 1500 rpm for 5 min.

CEM/VCR R cells = test: Resistance of vincristine-selected subline CEM/VCR R; format: cell-based, Human; conditions: CEM/VCR R subline of CCRF-CEM
From the text: as §1

[3] = empty vector and wild type γ-actin expressing cells

Row | Structure (SMILES) | effect on cell shape and microtubule network [1, 3] | effect on cell shape and microtubule network ([1]; mutant γ-actin transfectants) | relative resistance (ID50 transfectant / ID50 empty vector) ([2]; P98L γ-actin mutant vs empty vector and wildtype γ-actin cells) | relative resistance (ID50 transfectant / ID50 empty vector) ([2]; V103L γ-actin mutant vs empty vector and wildtype γ-actin cells) | fold resistant to vinblastine (CEM/VLB100 cells) | fold resistant to vincristine (CEM/VCR R cells)
1 | C/C1=C/C[C@@H](/C(C)=C/c2csc(C)n2)OC(=O)C[C@H](O)C(C)(C)C(=O)[C@H](C)[C@@H](O)[C@@H](C)CCC1 [dEpoB, Desoxyepothilone B] | marked structural changes | microtubule network remains largely intact | – | – | – | –
2 | CC[C@]1(O)C[C@@H]2CN(CCc3c([nH]c4ccccc34)[C@@](C(=O)OC)(c3cc4c(cc3OC)N(C)[C@H]3[C@@](O)(C(=O)OC)[C@H](OC(C)=O)[C@]5(CC)C=CCN6CC[C@]43[C@@H]65)C2)C1 [vinblastine] | marked structural changes | microtubule network remains largely intact | over 3 fold | over 2 fold | 6,667 fold | –
3 | CC[C@]1(O)C[C@H]2CN(CCc3c([nH]c4ccccc34)[C@@](C(=O)OC)(c3cc4c(cc3OC)N(C=O)[C@H]3[C@@](O)(C(=O)OC)[C@H](OC(C)=O)[C@]5(CC)C=CCN6CC[C@]43[C@@H]65)C2)C1 [vincristine] | – | – | – | – | – | 22,600 fold
